{"source": "patent US20260373274A1", "about": "“PEPTIDE-LINKED DRUG DELIVERY SYSTEM” (priority 2022, published 2026)", "key": {"[1]": {"assay": "μPET/CT imaging and biodistribution of ^89Zr-radiolabeled peptides", "format": "in vivo, BALB/c mice", "conditions": "i.v.", "method": "Radiochemistry—^89Zirconium (^89Zr) was supplied by 3DImaging LLC (Little Rock, AR). The ^89Zr-oxalate (500 μCi) was first neutralized with an equivalent volume of sodium carbonate solution (2 M), and then added to the DFO-peptides (0.2 mg, 250 μL). After incubation for 1.5 h at room temperature, the radiolabeled peptides (^89Zr-peptides) were purified by size exclusion chromatography using Sephadex G-25 gel to remove the free zirconium.\nμPET/CT imaging and biodistribution study—BALB/c mice were intravenously injected with different ^89Zr-peptide analogues (20 μCi, 100 μL). μLPET/CT imaging was performed in animals with and without urine collection prior to the first imaging (n=4/analogue/condition). Whole-body images were acquired 1, 4, and 24 h after injection, using Inveon μPET/CT scanner (Siemens Medical Solutions, Malvern, PA). μPET/CT maximum energy projections were processed using Amide v1.0.4 and Inveon Research Workplace software. The radioactivities at different region of interest (ROI) were determined. […] The radioactivities of the harvested organs were measured using the Wallac Wizard 2 gamma counter. The results were corrected from radioactive decay, and were expressed as a percentage of the injected dose (% ID) or percentage of injected dose per gram of tissue (% ID/g)."}, "[2]": {"tested_on": "kidney injury molecule-1 (KIM-1) and neutrophil gelatinase-associated lipocalin (NGAL)", "assay": "Nephrotoxicity studies, urinary renal injury biomarkers by ELISA", "format": "in vivo, BALB/c mice", "conditions": "single i.v. dose; 3 days", "method": "The level of the acute renal injury biomarkers, neutrophil gelatinase-associated lipocalin (NGAL) and kidney injury molecule-1 (KIM-1) in the urine samples, were measured using ELISA assays according to the manufacturer's instructions (R&D Systems, Minneapolis, MN). […] All the animals (n=3/group) were euthanized at the end of the treatment and the kidneys were collected and fixed in 10% neutral buffered formalin. The tissues were then processed, embedded in paraffin, sectioned, and stained with H&E. Immunohistochemistry (IHC) for kidney injury (NGAL and KIM-I) was also performed."}, "[3]": {"assay": "Fluorescence imaging of Cyanine5.5-labeled peptides (in vivo, ex vivo, urine)", "design": "species or system Female SHO mice", "conditions": "i.v.", "text": "The animals were then euthanized."}, "[4]": {"tested_on": "orthotopic human UMUC-3 tumors", "assay": "Therapeutic efficacy for treating BC, orthotopic UMUC-3/GFP-Luc xenograft", "conditions": "5 mg/kg weekly", "text": "These animals were immediately euthanized I week after the completion of the treatment schedule.\nSlides were then counterstained with Hematoxylin."}, "Serum biochemistry": {"assay": "Serum biochemistry", "format": "in vivo, female BALB/c mice", "conditions": "i.v. weekly for 3 weeks; DM1 0.75 mg/kg, CIS 10 mg/kg", "text": "(§1) At the end of a 3-week treatment, mice were euthanized. The organs/tissues were harvested, fixed in 10% neutral buffered formalin for 2 days. Bones were decalcified in a formic acid solution (Surgipath Decalcifier I; Leica Biosystems, Weltzar, Germany). The samples were then embedded in paraffin, sectioned (5 μm), and stained with H&E for examination by an ACVP board certified anatomic pathologist.\n(§2) Hematology and biochemistry—Blood samples were collected via cardiac puncture. A complete blood count, including red blood cell, white blood cell, reticulocyte and platelet counts, with an automated differential leukocyte count, was performed using an IDEXX Procyte DX hematology analyzer (iDEXX, Westbrook. ME). Blood smears were prepared, stained with modified Wright's stain, examined in a blinded fashion by a board-certified veterinary clinical pathologist (T.S.), and imaged using a Nikon Eclipse TE2000-U fluorescent microscope equipped with a photometrics CoolSNAP HQ^2 camera (Nikon Corporation, Tokyo, Japan). The blood was also centrifuged (1,500×G) for 15 min to obtain the serum for biochemical analysis using a Beckman Coulter AU680 analyzer (Beckman Coulter, Brea, CA)."}, "[5]": {"assay": "Hematology, complete blood count", "format": "in vivo, female BALB/c mice", "conditions": "i.v. weekly for 3 weeks; DM1/DM1-Bdd 0.75 mg/kg, CIS 10 mg/kg", "method": "as §1, with “Necropsy—Seven- to 9-week-old female BALB/c mice (n=4/group) were treated weekly with PBS, DM1, DM1-peptide (0.75 mg/kg of drug content), or cisplatin (10 mg/kg) via tail-vein injection (150 μL). At” for “At”\nas §2"}, "[6]": {"tested_on": "major organs (liver, spleen, heart, lungs, and kidneys)", "assay": "Necropsy, histopathology of major organs", "format": "in vivo, female BALB/c mice", "conditions": "i.v. weekly for 3 weeks; DM1/DM1-Bdd 0.75 mg/kg, CIS 10 mg/kg", "text": "as §1"}}, "note": "Entries after “also recorded” stand apart in the source; their conditions may differ. Where a SMILES comes first, the peptide text is derived from it."}
{"molecule": "NH2-(PEG3)DD-(PEG3)DD-(PEG3)DD-(PEG3)DD-CONH2 (SEQ ID NO:5) [PEG3DD]", "values": [{"measurement": "accumulation in kidneys over time", "setting": "[1]", "result": "initial increase"}]}
{"molecule": "Nc1ccn([C@@H]2O[C@H](CO)[C@@H](O)C2(F)F)c(=O)n1", "note": "[GEM, gemcitabine]", "values": [{"measurement": "induction of KIM-1 and/or NGAL, 3 days", "setting": "[2]", "result": "continued induction of KIM-1 and/or NGAL"}]}
{"molecule": "CO[C@@]12[C@H](COC(N)=O)C3=C(C(=O)C(C)=C(N)C3=O)N1C[C@@H]1N[C@@H]12", "note": "[MIT, Mitomycin]", "values": [{"measurement": "induction of KIM-1 and/or NGAL, 3 days", "setting": "[2]", "result": "continued induction of KIM-1 and/or NGAL"}]}
{"molecule": "CC(=O)N(O)CCCCCNC(=O)CCC(=O)N(O)CCCCCNC(=O)CCC(=O)N(O)CCCCCNC(=S)Nc1ccc(NC(=S)NCCC(=O)N[C@@H](CCCCN)C(=O)N[C@@H](CCCCN)C(=O)NCCC(=O)N[C@@H](CCCCN)C(=O)N[C@@H](CCCCN)C(=O)NCCC(=O)N[C@@H](CCCCN)C(=O)N[C@@H](CCCCN)C(=O)NCCC(=O)N[C@@H](CCCCN)C(=O)N[C@@H](CCCCN)C(N)=O)cc1", "note": "[^89Zr-BKK, metal not drawn] (HELM PEPTIDE1{[CC(=O)N(O)CCCCCNC(=O)CCC(=O)N(O)CCCCCNC(=O)CCC(=O)N(O)CCCCCNC(=S)Nc1ccc(NC(=S)[*:2])cc1].[bAla].K.K.[bAla].K.K.[bAla].K.K.[bAla].K.K.[am]}$$$$V2.0)", "values": [{"measurement": "organ distribution", "setting": "[1]", "result": "delivered to the liver in addition to the URS"}]}
{"molecule": "CN1/C(=C/C=C/C=C/C2=[N+](CCCCCC(=O)NCCC(=O)N[C@@H](CCCCN)C(=O)N[C@@H](CCCCN)C(=O)NCCC(=O)N[C@@H](CCCCN)C(=O)N[C@@H](CCCCN)C(=O)NCCC(=O)N[C@@H](CCCCN)C(=O)N[C@@H](CCCCN)C(=O)NCCC(=O)N[C@@H](CCCCN)C(=O)N[C@@H](CCCCN)C(N)=O)c3ccc4ccccc4c3C2(C)C)C(C)(C)c2c1ccc1ccccc21", "note": "[Cy-BKK] (HELM PEPTIDE1{[CN1/C(=C/C=C/C=C/C2=[N+](CCCCCC(=O)[*:2])c3ccc4ccccc4c3C2(C)C)C(C)(C)c2c1ccc1ccccc21].[bAla].K.K.[bAla].K.K.[bAla].K.K.[bAla].K.K.[am]}$$$$V2.0)", "values": [{"measurement": "main uptake organ", "setting": "[3]", "result": "mainly taken up by the liver"}]}
{"molecule": "Cyanine5.5 [free Cy, reference compound]", "values": [{"measurement": "main uptake organ", "setting": "[3]", "result": "mainly taken up by the liver"}]}
{"molecule": "CN1/C(=C/C=C/C=C/C2=[N+](CCCCCC(=O)NCCC(=O)N[C@@H](CCCCN)C(=O)N[C@@H](CC(=O)O)C(=O)NCCC(=O)N[C@@H](CCCCN)C(=O)N[C@@H](CC(=O)O)C(=O)NCCC(=O)N[C@@H](CCCCN)C(=O)N[C@@H](CC(=O)O)C(=O)NCCC(=O)N[C@@H](CCCCN)C(=O)N[C@@H](CC(=O)O)C(N)=O)c3ccc4ccccc4c3C2(C)C)C(C)(C)c2c1ccc1ccccc21", "note": "[Cy-BKD] (HELM PEPTIDE1{[CN1/C(=C/C=C/C=C/C2=[N+](CCCCCC(=O)[*:2])c3ccc4ccccc4c3C2(C)C)C(C)(C)c2c1ccc1ccccc21].[bAla].K.D.[bAla].K.D.[bAla].K.D.[bAla].K.D.[am]}$$$$V2.0)", "values": [{"measurement": "main uptake organ", "setting": "[3]", "result": "mainly taken up by the liver"}]}
{"molecule": "COc1cccc2c1C(=O)c1c(O)c3c(c(O)c1C2=O)C[C@@](O)(C(=O)CO)C[C@@H]3O[C@H]1C[C@H](N)[C@H](O)[C@H](C)O1", "note": "[DOX, Doxorubicin, reference compound]", "values": [{"measurement": "body weight", "setting": "[4]", "result": "all the animals continuously losing weight"}, {"measurement": "life expectancy compared to the PBS control / mortality", "setting": "[4]", "result": "shorter life expectancy compared to the PBS control; also recorded: died prior to receiving the final dose; also recorded: caused mortality"}]}
{"molecule": "N.N.[Cl][Pt][Cl]", "note": "[CIS, cis-dichlorodiammine platinum(II)]", "values": [{"measurement": "muscle injury (CK activity)", "setting": "Serum biochemistry", "result": "induced muscle injury (CK activity)"}, {"measurement": "red blood cell, leukocyte, or platelet counts or morphologic features", "setting": "[5]", "result": "thrombocytopenia and lymphopenia"}, {"measurement": "histopathology of liver, spleen, heart, lungs, or kidneys", "setting": "[6]", "result": "degeneration and necrosis of the proximal renal tubules, lung inflammation, and depletion of both erythrocytes and extramedullary hematopoiesis (EMH) in spleen"}]}
